Source: paper PMC5400565, “Real-time near-infrared fluorescence imaging using cRGD-ZW800-1 for intraoperative visualization of multiple cancer types” (Oncotarget, 2017)

Legend:
Vasopressin V1a = target: T1, Vasopressin V1a (Homo sapiens, UniProt P37288); assay: Off-target screening (Eurofins Cerep), V1a; assay type: binding
T1 construct: Eurofins Cerep SA (contract screening)

HT-29 cells = assay: Binding assay of cRGD-ZW800-1 on cells; assay type: cell-based, human
Endothelin ETA = target: T2, Endothelin ETA (Homo sapiens, UniProt P25101); assay: Off-target screening (Eurofins Cerep), ETA; assay type: binding
T2 construct: Eurofins Cerep SA (contract screening)

COX1 = target: T3, COX1 (Homo sapiens, UniProt P23219); assay: Off-target screening (Eurofins Cerep), COX1; assay type: biochemical
T3 construct: Eurofins Cerep SA (contract screen)
T3 sequence (P23219 24-599): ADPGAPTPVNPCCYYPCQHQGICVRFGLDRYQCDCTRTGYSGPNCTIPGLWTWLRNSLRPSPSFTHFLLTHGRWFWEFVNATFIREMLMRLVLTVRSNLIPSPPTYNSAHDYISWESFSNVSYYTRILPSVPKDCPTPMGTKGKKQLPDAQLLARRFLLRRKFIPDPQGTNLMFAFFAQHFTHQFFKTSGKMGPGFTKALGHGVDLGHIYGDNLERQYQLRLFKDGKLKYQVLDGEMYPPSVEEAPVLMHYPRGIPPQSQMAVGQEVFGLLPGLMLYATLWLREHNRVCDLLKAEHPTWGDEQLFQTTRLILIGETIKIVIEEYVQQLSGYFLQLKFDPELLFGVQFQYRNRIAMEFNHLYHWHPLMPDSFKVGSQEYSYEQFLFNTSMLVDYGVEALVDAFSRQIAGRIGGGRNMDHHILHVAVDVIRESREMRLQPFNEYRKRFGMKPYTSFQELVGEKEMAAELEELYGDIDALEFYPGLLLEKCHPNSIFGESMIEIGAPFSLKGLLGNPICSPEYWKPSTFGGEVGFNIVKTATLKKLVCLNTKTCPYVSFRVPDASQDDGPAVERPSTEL

[1] = target: T4, Nicotinic channels N neuronal α4β2 (Homo sapiens, UniProt P17787+P43681); assay: Off-target screening (Eurofins Cerep), N neuronal α4β2; assay type: binding
T4 construct: Eurofins Cerep SA (contract screen)
T4 sequence (P43681 29-627 limits assumed): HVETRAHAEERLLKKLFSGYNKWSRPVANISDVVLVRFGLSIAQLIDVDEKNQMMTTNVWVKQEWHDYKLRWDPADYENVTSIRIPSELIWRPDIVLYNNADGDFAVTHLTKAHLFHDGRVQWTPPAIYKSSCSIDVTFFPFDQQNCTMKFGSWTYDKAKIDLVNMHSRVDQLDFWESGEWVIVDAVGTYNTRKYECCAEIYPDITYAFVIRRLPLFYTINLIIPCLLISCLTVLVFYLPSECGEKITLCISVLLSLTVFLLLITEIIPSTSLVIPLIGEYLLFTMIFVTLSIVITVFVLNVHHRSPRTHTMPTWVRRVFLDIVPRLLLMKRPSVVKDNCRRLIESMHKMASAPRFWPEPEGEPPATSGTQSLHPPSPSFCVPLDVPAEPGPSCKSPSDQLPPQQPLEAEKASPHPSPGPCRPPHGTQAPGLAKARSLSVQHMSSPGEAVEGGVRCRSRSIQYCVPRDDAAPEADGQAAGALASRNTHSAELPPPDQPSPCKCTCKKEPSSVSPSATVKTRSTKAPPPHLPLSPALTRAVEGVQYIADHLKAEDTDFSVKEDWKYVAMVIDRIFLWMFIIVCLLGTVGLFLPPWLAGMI
T4 sequence (P17787 26-502): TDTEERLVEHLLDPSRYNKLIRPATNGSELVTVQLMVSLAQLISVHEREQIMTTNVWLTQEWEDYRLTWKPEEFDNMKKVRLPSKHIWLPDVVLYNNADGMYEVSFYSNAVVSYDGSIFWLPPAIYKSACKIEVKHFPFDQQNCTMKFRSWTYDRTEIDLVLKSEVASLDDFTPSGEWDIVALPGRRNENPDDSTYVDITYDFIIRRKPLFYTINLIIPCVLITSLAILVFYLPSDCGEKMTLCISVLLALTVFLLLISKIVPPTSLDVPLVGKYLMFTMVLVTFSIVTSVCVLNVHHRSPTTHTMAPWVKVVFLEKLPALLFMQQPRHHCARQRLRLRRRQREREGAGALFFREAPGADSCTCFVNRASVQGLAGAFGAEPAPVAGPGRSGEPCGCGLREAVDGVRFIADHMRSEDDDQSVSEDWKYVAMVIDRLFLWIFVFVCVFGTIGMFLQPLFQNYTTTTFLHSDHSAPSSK

Adenosine A2A = target: T5, Adenosine A2A (Homo sapiens, UniProt P29274); assay: Off-target screening (Eurofins Cerep), A2A; assay type: binding
T5 construct: Eurofins Cerep SA (contract screening)
T5 sequence (P29274 whole entry): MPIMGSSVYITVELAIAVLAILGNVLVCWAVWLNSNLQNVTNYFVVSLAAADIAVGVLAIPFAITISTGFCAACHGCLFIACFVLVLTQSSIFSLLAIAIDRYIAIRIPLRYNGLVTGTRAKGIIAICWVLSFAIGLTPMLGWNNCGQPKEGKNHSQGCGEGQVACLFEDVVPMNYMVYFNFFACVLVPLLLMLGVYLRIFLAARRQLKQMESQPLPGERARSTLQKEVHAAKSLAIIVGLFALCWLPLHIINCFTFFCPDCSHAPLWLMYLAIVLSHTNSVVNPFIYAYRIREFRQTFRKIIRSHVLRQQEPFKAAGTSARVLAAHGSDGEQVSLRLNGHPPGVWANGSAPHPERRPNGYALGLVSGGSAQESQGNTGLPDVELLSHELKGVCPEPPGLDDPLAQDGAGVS

Adrenergic α2A = target: T6, Adrenergic α2A (Homo sapiens, UniProt P08913); assay: Off-target screening (Eurofins Cerep), α2A; assay type: binding
T6 construct: Eurofins Cerep SA (contract screening)

tumors = assay: Estimated concentration inside tumors in humans; conditions: after administering 63 μg/kg, assuming tumor uptake comparable to RGD-PET tracer
Opioid κ (KOP) = Opioid κ (KOP) (Rattus norvegicus, UniProt P34975); assay: biochemical; assay type: binding
Acetylcholinesterase = target: T7, Acetylcholinesterase (Homo sapiens, UniProt P22303); assay: Off-target screening (Eurofins Cerep), acetylcholinesterase; assay type: biochemical
T7 construct: Eurofins Cerep SA (contract screen)
T7 sequence (P22303 32-614): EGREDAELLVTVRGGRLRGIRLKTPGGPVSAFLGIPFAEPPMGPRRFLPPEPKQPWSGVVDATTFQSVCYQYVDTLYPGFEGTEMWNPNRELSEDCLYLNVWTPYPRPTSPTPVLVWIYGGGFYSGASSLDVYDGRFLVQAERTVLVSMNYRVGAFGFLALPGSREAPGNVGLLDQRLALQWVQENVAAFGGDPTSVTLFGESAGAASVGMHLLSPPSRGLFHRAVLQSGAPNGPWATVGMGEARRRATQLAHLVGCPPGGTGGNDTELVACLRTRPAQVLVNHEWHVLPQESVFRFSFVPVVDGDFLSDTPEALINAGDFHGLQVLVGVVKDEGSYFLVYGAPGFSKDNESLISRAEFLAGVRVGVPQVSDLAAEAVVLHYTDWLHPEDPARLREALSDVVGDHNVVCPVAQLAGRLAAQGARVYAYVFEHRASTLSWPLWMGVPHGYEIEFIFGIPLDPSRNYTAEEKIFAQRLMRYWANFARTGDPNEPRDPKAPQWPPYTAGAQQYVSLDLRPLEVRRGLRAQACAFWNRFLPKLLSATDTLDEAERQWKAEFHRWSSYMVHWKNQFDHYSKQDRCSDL

5-HT transporter = target: T8, 5-HT transporter (Homo sapiens, UniProt P31645); assay: Off-target screening (Eurofins Cerep), 5-HT transporter; assay type: binding
T8 construct: Eurofins Cerep SA (contract screen)

[2] = tested on: orthotopic HT-29 colon tumors; assay: In vivo competition, orthotopic HT-29 model; parameters: species or system mice
Protocol: All animals were imaged using a Pearl® imager (LI-COR, Lincoln, NE) and an original FLARE® prototype. Animals with HT-29 tumors were imaged at 4 and 24 h post injection; animals with BxPC-3 and OSC-19 tumors at 4 h only. Animals with MCF-7 tumors were imaged at 0.5, 1, 2, 4, 6, 8, 24 and 48 h post injection. The specific and control images were normalized and regions of interest (ROIs) were selected using associated software. TBRs were calculated by dividing the tumor signal by the background signal. Based on our experience a TBR ≥ 2 is sufficient to discriminate between tumor and surrounding tissue.
The binding specificity of cRGD-ZW800-1 was explored in a competition experiment using an excess of unlabeled cRGD (200-fold excess) co-injected with a standard dose of 10 nmol cRGD-ZW800-1 (n = 4). Simultaneously, mice (n = 3) were injected with 10 nmol cRGD-ZW800-1 as positive control. All mice had orthotopic HT-29 colon tumors. Images were acquired at 4 and 24 h post-injection after which animals were sacrificed and organs were resected and scanned with Pearl®.

Potassium Channel hERG = Potassium Channel hERG (Homo sapiens, UniProt Q12809)
Chain of Potassium Channel hERG (Q12809 whole entry): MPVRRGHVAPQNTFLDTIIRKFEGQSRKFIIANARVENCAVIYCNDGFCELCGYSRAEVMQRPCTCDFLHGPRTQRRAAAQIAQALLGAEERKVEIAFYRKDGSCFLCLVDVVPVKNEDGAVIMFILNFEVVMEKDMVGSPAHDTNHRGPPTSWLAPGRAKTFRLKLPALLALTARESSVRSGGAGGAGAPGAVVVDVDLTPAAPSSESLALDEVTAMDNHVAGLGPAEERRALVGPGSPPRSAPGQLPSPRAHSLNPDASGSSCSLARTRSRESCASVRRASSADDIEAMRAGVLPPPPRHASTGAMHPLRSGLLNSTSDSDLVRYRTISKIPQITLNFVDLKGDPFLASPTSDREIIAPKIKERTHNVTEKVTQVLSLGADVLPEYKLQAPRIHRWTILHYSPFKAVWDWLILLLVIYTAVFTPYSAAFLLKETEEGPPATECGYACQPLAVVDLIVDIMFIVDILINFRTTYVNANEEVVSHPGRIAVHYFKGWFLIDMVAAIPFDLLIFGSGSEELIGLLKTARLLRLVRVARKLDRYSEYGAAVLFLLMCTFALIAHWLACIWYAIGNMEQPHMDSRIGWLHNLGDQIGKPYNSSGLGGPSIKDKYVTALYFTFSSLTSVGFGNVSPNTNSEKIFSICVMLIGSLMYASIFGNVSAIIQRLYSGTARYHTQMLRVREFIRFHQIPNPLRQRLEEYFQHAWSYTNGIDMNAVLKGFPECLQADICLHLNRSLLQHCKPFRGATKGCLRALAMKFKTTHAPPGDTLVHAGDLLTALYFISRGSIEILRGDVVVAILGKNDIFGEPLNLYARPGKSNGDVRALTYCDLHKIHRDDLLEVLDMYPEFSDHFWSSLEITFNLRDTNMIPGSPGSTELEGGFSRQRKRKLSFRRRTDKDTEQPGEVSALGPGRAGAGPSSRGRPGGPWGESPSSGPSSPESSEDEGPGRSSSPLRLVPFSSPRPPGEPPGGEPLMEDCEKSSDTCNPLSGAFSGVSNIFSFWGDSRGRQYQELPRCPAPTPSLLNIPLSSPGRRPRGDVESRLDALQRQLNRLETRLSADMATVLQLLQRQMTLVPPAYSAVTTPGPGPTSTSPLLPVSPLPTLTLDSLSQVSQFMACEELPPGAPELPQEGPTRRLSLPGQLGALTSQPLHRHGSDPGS

Dopamine transporter = target: T9, Dopamine transporter (Homo sapiens, UniProt Q01959); assay: Off-target screening (Eurofins Cerep), dopamine transporter; assay type: binding
T9 construct: Eurofins Cerep SA (contract screening)
T9 sequence (Q01959 whole entry): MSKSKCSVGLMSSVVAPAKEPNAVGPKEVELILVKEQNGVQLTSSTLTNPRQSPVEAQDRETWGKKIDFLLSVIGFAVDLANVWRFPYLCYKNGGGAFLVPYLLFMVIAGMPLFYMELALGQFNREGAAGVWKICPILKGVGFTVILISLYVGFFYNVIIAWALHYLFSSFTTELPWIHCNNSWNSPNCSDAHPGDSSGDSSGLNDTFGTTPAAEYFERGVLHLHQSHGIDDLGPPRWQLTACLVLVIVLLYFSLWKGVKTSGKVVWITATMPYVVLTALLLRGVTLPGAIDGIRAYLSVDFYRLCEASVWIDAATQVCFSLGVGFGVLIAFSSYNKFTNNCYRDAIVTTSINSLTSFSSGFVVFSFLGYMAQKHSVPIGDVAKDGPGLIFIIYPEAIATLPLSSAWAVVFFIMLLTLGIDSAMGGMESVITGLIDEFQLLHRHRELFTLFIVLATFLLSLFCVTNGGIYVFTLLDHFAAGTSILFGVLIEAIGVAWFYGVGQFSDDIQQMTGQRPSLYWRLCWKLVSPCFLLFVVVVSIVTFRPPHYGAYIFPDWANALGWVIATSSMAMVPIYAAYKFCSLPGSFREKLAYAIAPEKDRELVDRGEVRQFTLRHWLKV

[3] = target: Ca2+ channel (L, dihydropyridine site) (Rattus norvegicus, UniProt P22002); assay: Off-target screening (Eurofins Cerep), Ca2+ channel; assay type: binding
Text: Off-target interactions are binding of tracers to other components on the cell surface than the actual target site. These non-specific interactions are often of low affinity and easily missed, but can have significant effects. We outsourced the screening for in vitro for off-target interactions of cRGD-ZW800-1 to Eurofins Cerep SA, Le bois l’Evêque, France. They assessed the percentage of inhibition of a reference compound in 44 selected targets, including G protein-coupled receptors (GPCRs), transporters, ion channels, nuclear receptors, kinases and other non-kinase enzymes. These targets were recommended by four major pharmaceutical companies. The complete list is included in Supplementary Table 1 of the Supplementary Data. Each assay was performed twice using 10 μM cRGD-ZW800-1 and a reference compound. Inhibition higher than 50% was considered to represent a significant effect of cRGD-ZW800-1. Results showing between 20% and 50% were considered weak to moderate effects, while lower than 20% was not considered significant and mostly attributable to variability of the signal around the control level.

[4] = 10 μM cRGD-ZW800-1, format H, Ag, performed twice, read-out: % Inhibition of Control Specific Binding
[5] = 10 μM, mean of 2, read-out: % of Control Specific Binding Mean
[6] = 10 μM cRGD-ZW800-1, format H, performed twice, read-out: % Inhibition of Control Specific Binding
[7] = 10 μM cRGD-ZW800-1, format H, An, performed twice, read-out: % Inhibition of Control Specific Binding

T1 sequence (P37288 whole entry): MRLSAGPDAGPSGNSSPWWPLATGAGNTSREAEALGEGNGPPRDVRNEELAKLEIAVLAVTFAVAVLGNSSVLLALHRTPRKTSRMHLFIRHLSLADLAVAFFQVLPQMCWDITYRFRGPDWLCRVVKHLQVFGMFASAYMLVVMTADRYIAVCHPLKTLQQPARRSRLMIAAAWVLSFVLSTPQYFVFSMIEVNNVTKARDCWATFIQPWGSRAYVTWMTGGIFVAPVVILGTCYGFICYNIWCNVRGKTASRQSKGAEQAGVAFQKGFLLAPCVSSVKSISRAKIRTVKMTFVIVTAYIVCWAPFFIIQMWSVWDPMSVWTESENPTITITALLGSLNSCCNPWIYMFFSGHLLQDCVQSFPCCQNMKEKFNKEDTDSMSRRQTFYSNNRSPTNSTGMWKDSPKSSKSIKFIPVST

CC1(C)C(/C=C/C2=C(Oc3ccc(CCC(=O)NCCCC[C@@H]4NC(=O)[C@@H](Cc5ccc(O)cc5)NC(=O)[C@H](CC(=O)O)NC(=O)CNC(=O)[C@H](CCCNC(=N)N)NC4=O)cc3)C(=C/C=C3/N(CCC[N+](C)(C)C)c4ccc(S(=O)(=O)O)cc4C3(C)C)/CCC2)=[N+](CCC[N+](C)(C)C)c2ccc(S(=O)(=O)O)cc21 [cRGD-ZW800-1]
inhibition at 10 µM (Vasopressin V1a; [4]): 4%
remaining activity at 10 µM (Vasopressin V1a; [5]): 96%
fluorescence intensity with increasing concentrations (HT-29 cells; 0, 125, 250, 500, 1000 nM, 1 h, Odyssey NIR scanner 800-nm channel, triplicate): almost linear increase
fluorescence signals at 4°C compared to 37°C (HT-29 cells; incubated at 4°C, which prevents internalization, p < 0.0001): Significantly lower signals
inhibition at 10 µM (Endothelin ETA; [4]): 1%
remaining activity at 10 µM (Endothelin ETA; [5]): 98.6%
inhibition at 10 µM (COX1; [6]): -8%
remaining activity at 10 µM (COX1; [5]): 108%
inhibition at 10 µM [1, 4]: -11%
remaining activity at 10 µM [1, 5]: 111%
inhibition at 10 µM (Adenosine A2A; [4]): 8%
remaining activity at 10 µM (Adenosine A2A; [5]): 91.9%
inhibition at 10 µM (Adrenergic α2A; [7]): -4%
remaining activity at 10 µM (Adrenergic α2A; [5]): 104%
concentration inside tumors (tumors): approximately 0.2 μM
inhibition at 10 µM (Opioid κ (KOP); read-out: % Inhibition of Control Specific Binding): 19%
remaining activity at 10 µM (Opioid κ (KOP); read-out: % of Control Specific Binding Mean): 81.2%
inhibition at 10 µM (Acetylcholinesterase; [6]): 2%
remaining activity at 10 µM (Acetylcholinesterase; [5]): 98.4%
inhibition at 10 µM (5-HT transporter; [7]): -3%
remaining activity at 10 µM (5-HT transporter; [5]): 103%
TBR at 4 h, control ([2]; 10 nmol cRGD-ZW800-1 alone, n = 3, healthy colon as background, mean ± SD): 3.2 ± 0.5
TBR at 4 h, with unlabeled cRGD ([2]; 10 nmol cRGD-ZW800-1 co-injected with 2.0 μmol unlabeled cRGD (200-fold), n = 4, mean ± SD): 1.8 ± 0.4
% Inhibition of Control Specific Binding (Potassium Channel hERG): -6%
% of Control Specific Binding 1st (Potassium Channel hERG; 10 µM): 106.4%
% of Control Specific Binding 2nd (Potassium Channel hERG; 10 µM): 104.8%
inhibition at 10 µM (Dopamine transporter; [7]): 5%
remaining activity at 10 µM (Dopamine transporter; [5]): 95%
inhibition at 10 µM ([3]; Ca2+ channel (L, dihydropyridine site), 10 μM cRGD-ZW800-1, format An, performed twice, read-out: % Inhibition of Control Specific Binding): 15%
remaining activity at 10 µM ([3]; Ca2+ channel, 10 μM, mean of 2, read-out: % of Control Specific Binding Mean): 84.6%
